This is an account of results in patent publication US20200166517A1, “Screening Method for Identification of Neuroprotective Compounds” (Temple University-Of The Commonwealth System of Higher …, priority 2017, published 2020).

Structures are written as SMILES. Entries after “also recorded” stand apart in the source; their conditions may differ.

Common to all, as to type: cell-based
Data set [1] has as its system JNK3 activation by wtDLK-GFP. The experiment in a line: JNK3 activation by wtDLK-GFP in cotransfected HEK293T cells, detected by phosphoJNK antibody. Conditions: HEK293T cells expressing myc-JNK3 plus wtDLK-GFP; vs EtOH vehicle. Here is the method:
FIG. 2A: HEK293T cells expressing myc-JNK3 plus wtDLK-GFP were treated with the palmitoylation inhibitor 2-Bromopalmitate (2-Br) or EtOH (vehicle). […] FIG. 2B: HEK293T cells were transfected with myc-JNK3 plus either wtDLK-GFP or a DLK palmitoyl site mutant (DLK-CS-GFP). Only wtDLK-GFP activates JNK3, as detected by phosphoJNK antibody.

The test system of another data set is HEK293T cells. The experiment in a line: mCherry-NLS×3 expression and DAPI nuclear signal (toxicity / non-specific effect readout of the screen). Conditions: HEK293T co-transfected with DLK-GFP plus mCherry-NLS×3. The protocol:
(§1) FIG. 7A depicts HEK293T cells co-transfected with DLK-GFP plus mCherry-NLS×3 and then treated with 2BP or vehicle were fixed to detect GFP, mCherry and the nuclear marker DAPI. […] FIG. 7B depicts design of the high-throughput screen for compounds that inhibit DLK-GFP puncta formation. FIG. 7C depicts compounds from the Prestwick Chemical Library™, which were spotted onto 96 well plates at 10 mM per compound in DMSO and diluted in DMEM prior to adding to transfected cells in duplicate at a final concentration of 10 micromolar (similar to the flow chart in FIG. 7B). 16 h later, cells were fixed in 4% PFA and stained with DAPI. High-content imaging was performed using an ImageXPress Image Analysis ‘TransFluor’ and Multi-wavelength scoring (MWS) modules. Data are plotted as total number of puncta (TransFluor Module) per total NLS (MWS module) for each compound. Drugs that decreased the nuclear NLS and/or DAPI markers below 3 times the […] were excluded due to likely toxicity or non-specific effects (plotted in grey). ‘Hits’ were drugs characterised as decreasing all ‘puncta’ readouts by more than 3 times the SD and included in 2 replicates.

Data set [2] deals with T1, DLK-GFP (Homo sapiens, UniProt Q12852).
T1 sequence (Q12852 1-892 isoform Q12852-2): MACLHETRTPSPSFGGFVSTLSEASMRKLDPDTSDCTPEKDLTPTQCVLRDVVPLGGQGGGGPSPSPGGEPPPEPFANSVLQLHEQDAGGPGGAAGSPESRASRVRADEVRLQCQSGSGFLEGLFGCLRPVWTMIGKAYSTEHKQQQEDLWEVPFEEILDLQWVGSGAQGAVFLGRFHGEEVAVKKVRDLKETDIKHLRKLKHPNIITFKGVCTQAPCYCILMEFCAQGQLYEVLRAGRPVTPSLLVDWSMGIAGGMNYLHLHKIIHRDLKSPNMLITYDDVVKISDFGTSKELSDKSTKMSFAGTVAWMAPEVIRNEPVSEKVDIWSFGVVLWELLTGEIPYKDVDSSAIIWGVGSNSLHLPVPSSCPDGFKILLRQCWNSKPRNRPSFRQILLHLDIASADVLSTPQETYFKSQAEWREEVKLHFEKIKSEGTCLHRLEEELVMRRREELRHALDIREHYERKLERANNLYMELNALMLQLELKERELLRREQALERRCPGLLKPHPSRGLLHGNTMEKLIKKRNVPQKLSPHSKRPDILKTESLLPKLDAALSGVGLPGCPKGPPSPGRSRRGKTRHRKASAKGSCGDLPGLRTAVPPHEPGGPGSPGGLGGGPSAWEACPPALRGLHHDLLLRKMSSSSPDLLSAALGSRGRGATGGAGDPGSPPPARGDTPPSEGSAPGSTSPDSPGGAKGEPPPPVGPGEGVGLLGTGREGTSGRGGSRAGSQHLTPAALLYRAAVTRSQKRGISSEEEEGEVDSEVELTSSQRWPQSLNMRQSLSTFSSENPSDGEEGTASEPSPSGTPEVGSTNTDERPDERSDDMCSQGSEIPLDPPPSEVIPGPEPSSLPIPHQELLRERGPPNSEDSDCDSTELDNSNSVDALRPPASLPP
The data set can be described thus: Acyl-Biotin Exchange (ABE) palmitoylation assay, DLK-GFP in HEK293T cells. From the text:
FIG. 4 depicts an orthogonal assay to confirm mechanism of action (MOA) of HTS Hits. HEK293T cells were transfected with wt-DLK-GFP or DLK-CS-GFP and palmitoyl-proteins were isolated by Acyl-Biotin Exchange (ABE). Palmitoyl-DLK is robustly detected in ABE fractions but no ABE signal is seen from cells treated with 2-Br, or if DLK's palmitoyl-site is mutated. DLK expressed similarly in all conditions. (Holland, 2016)
(§2) FIG. 8A depicts an experiment in which HEK293T cells transiently transfected with DLK-GFP and mCherry-NLS and subsequently incubated with the indicated concentrations of Ketoconazole or 20 μM 2BP 2 hours post-transfection for 16-18 h. Cells were fixed and stained with DAPI. Scale bar represents 50 μm. FIG. 8B depicts quantified DLK puncta/NLS and nuclear counts (DAPI) from cells transfected as in FIG. 8A and treated with the indicated concentrations of ketoconazole. FIG. 8C depicts an experiment in which transiently transfected HEK293T cells were prepared as in FIG. 8A and palmitoylation (HAM+) was detected using the ABE assay. HAM- sample was generated from an equal fraction of all conditions combined.
HEK293T cells were transiently transfected with FIG. 9A) DLK-GFP, FIG. 9B) GAP43-Myc, FIG. 9C) and untagged PSD95 and incubated with 20 μM 2BP, or with 2.5 μM or 5 μM ketoconazole 2 h post-transfection for 16-18 h. Palmitoylation was detected using the ABE assay (left) and quantified from n=4 determinations per condition (right). HAM- includes an equal fraction of all conditions combined. […]
(§3) If changes in DLK localization observed by high-content imaging are indeed due to altered DLK palmitoylation then this should also be reflected in biochemical assays of DLK palmitoylation levels. Palmitoylation of numerous proteins, including DLK, has been previously monitored using a non-radioactive palmitoylation assay, Acyl-Biotin Exchange (ABE) (Holland, 2016; Thomas, 2012). […] WtDLK-GFP was robustly detected in ABE fractions but was absent from controls in which the essential ABE reagent hydroxylamine (NH2OH) was omitted (FIG. 4). […]

Data set [3] concerns the target T1, DLK-GFP. The experiment in a line: DLK-GFP puncta / membrane localization in transfected HEK293T cells (high-content imaging, ImageXpress). The protocol: FIG. 3A: HEK293T cells were transfected with wtDLK-GFP or DLK-CS-GFP and treated 4 h later with 2-Br or vehicle. Top: Live images of GFP fluorescence, acquired 8 h post-transfection. […] FIG. 3B: A subset of cells from FIG. 3A were fixed and immunostained with anti-GFP antibody. Images of GFP fluorescence (n=5 per condition) were analyzed by ImageXpress software. Palmitoylation-dependent differences in number of DLK-GFP puncta are readily detectable.
FIG. 6A depicts HEK293T cells transiently expressing DLK-GFP, fixed and immunostained with antibodies to detect GFP and the Golgi marker GM130. FIG. 6B depicts HEK293T cells, transfected as in FIG. 6A to express either wild type DLK-GFP (DLK-GFP) or a DLK palmitoylation site mutant (C127S-DLK-GFP). […] FIG. 6C depicts results from an experiment in which HEK293T cells were seeded into 12 wells of a 96-well plate and transfected with DLK-GFP and then treated with 2BP or vehicle (6 wells per condition). Cells were fixed in PFA and imaged using an ImageXpress High Content Imaging system to detect GFP signal. Assay quality was determined by calculating the z-prime (z′) for 6 determinations for each of the indicated conditions (z′=S/R, S=[(Mean of Vehicle treated−3×SD)−(Mean of 2BP−3×SD)], R=Vehicle Mean−2BP mean).
as §1, §2
In transfected HEK 293T cells, GFP-tagged wild type DLK (wtDLK-GFP) clearly localizes to intracellular membranes (FIG. 3, top). These membranes are distinct from the vesicles reported in neurons (likely due to different trafficking of DLK in non-neuronal cells) and instead overlap with Golgi markers, likely because many mammalian palmitoyl acyltransferases (PATs) localize to the Golgi (Levy, 2011; Ohno, 2006). […] In identically thresholded images, wtDLK-GFP puncta could be readily observed, that were absent in the 2-Br-treated and DLK-CS-GFP images (FIG. 3A, bottom). It was thus reasoned that this palmitoylation-dependent change in DLK localization should be quantifiable using high-content imaging software. […] High-content imaging detection is thus well suited to identify novel pharmacological inhibitors of DLK palmitoylation.

A further data set deals with GAP43-Myc. The experiment in a line: Acyl-Biotin Exchange (ABE) palmitoylation assay, GAP43-Myc in HEK293T cells. Conditions: 2.5 μM or 5 μM, 2 h post-transfection for 16-18 h, n=4; ANOVA not significant. The protocol:
(§4) HEK293T cells were transiently transfected with FIG. 9A) DLK-GFP, FIG. 9B) GAP43-Myc, FIG. 9C) and untagged PSD95 and incubated with 20 μM 2BP, or with 2.5 μM or 5 μM ketoconazole 2 h post-transfection for 16-18 h. Palmitoylation was detected using the ABE assay (left) and quantified from n=4 determinations per condition (right). HAM- includes an equal fraction of all conditions combined. […] One-way ANOVA, Kruskal-Wallis post-hoc analysis; FIG. 9A) ANOVA p=0.0214, h=7.692, FIG. 9B) ANOVA not significant, FIG. 9C) ANOVA p=0.0158, h=8.290. Error bars represent SEM.
as §3, with “2012). ABE uses an exchange of thioester-linked acyl modifications (i.e. palmitoylation), for biotin, with the resultant biotinylated proteins being affinity-purified from cell lysates using neutravidin-conjugated beads.” for “2012).”

The test system of the next data set is PSD95. The experiment in a line: Acyl-Biotin Exchange (ABE) palmitoylation assay, untagged PSD95 in HEK293T cells. Conditions: 2.5 μM or 5 μM, 2 h post-transfection for 16-18 h, n=4; ANOVA p=0.0158. Here is the method:
as §4
as §3, with “2012). ABE uses an exchange of thioester-linked acyl modifications (i.e. palmitoylation), for biotin, with the resultant biotinylated proteins being affinity-purified from cell lysates using neutravidin-conjugated beads.” for “2012).”

The test system of another data set is phospho-cJun. The data set can be described thus: DLK-mediated phospho-cJun activation after NGF withdrawal in DRG neurons (Western blot). The settings on record: DRG neurons DIV 7, 2.5 μM overnight pretreatment, 2.5 h NGF withdrawal; Bonferroni post-test p<0.01. The protocol: FIG. 10A depicts an experiment in which dorsal Root Ganglion (DRG) neurons were pretreated at 7 Days in vitro (DIV 7) with 2.5 μM Ketoconazole overnight or 20 μM 2BP for 2 h prior to a 2.5 h NGF withdrawal in presence of the indicated compound. Cells were lysed in SDS-PAGE loading buffer and levels of endogenous DLK, phospho-cJun and tubulin were detected by Western blot.
FIG. 10B depicts quantification of phospho-cJun normalised to -NGF vehicle treated cells. Two-way ANOVA indicates significant effects of interaction (p=0.0071), NGF (p=0.0026) and Ketoconazole (p=0.0001). The effect of Ketoconazole in DRGs undergoing NGF withdrawal was also significant as determined by the Bonferroni post-test (p<0.01). Error bars represent SEM.
(In general: In western blotting, separated proteins are transferred to a membrane and probed.)

Take `CCCCCCCCCCCCCCC(Br)C(=O)O` (centres unmarked) [2-Br, 2-Bromopalmitate]: the “JNK3 activation (phosphorylation) by wtDLK-GFP” value in data set [1] is “blocks JNK3 activation; also recorded: prevented DLK-dependent phosphorylation of JNK3”. The “mCherry-NLS×3 expression and DAPI signal” value in the data set on HEK293T cells was “without affecting mCherry-NLS×3 expression or DAPI signal”. In addition, on DLK-GFP [2] (HEK293T transfected with wtDLK-GFP), the “palmitoyl-DLK signal in ABE fractions” value is reported as “no ABE signal”. On DLK-GFP [3] (HEK293T co-transfected with DLK-GFP plus mCherry-NLS×3), the DLK-GFP puncta result is reported as “reduces DLK-GFP puncta”. The “Golgi-associated clusters of DLK-GFP” value on DLK-GFP [3] (HEK293T transiently expressing DLK-GFP) is recorded as “diffuses the Golgi-associated clusters of DLK-GFP”. The “DLK localization quantified by ImageXpress 'TransFluor' module (number of DLK-GFP puncta)” value at DLK-GFP [3] (HEK293T, fixed, anti-GFP immunostained, n=5 images per condition) is reported as “dramatically alters DLK localization”. Also, the “membrane-localized wtDLK-GFP puncta / DLK-GFP membrane association” value at DLK-GFP [3] (HEK293T, treated 4 h post-transfection, imaged 8 h post-transfection, thresholded images) was “completely disrupted DLK-GFP membrane association; also recorded: essentially absent”.
With `CC(=O)N1CCN(c2ccc(OCC3COC(Cn4ccnc4)(c4ccc(Cl)cc4Cl)O3)cc2)CC1` (centres unmarked) [Ketoconazole], in the data set with GAP43-Myc, the “palmitoylation of GAP-43 (ABE)” value is reported as “does not affect palmitoylation of GAP-43”. Moreover, the “palmitoylation of PSD-95 (ABE)” value in the data set with PSD95 is “significantly reduces palmitoylation of DLK and PSD-95”. Moreover, in the data set on phospho-cJun, the “phospho-cJun normalised to -NGF vehicle treated cells” value is “significantly decreases DLK-mediated phospho-cJun activation; also recorded: significant”. In addition, the “palmitoylation of DLK (ABE)” value at DLK-GFP [2] (2.5 μM or 5 μM, 2 h post-transfection for 16-18 h, n=4, ANOVA p=0.0214) is given as “significantly reduces palmitoylation of DLK”. Moreover, the “DLK palmitoylation (ABE, HAM+), dose response” value on DLK-GFP [2] (HEK293T, compound 2 hours post-transfection for 16-18 h) is recorded as “inhibits DLK palmitoylation in a dose dependent manner”. Besides, the “inhibition of DLK-GFP puncta formation (puncta per total NLS), rank in Prestwick Chemical Library screen” value against DLK-GFP [3] (10 micromolar final, duplicate, 16 h, 96-well) is recorded as “most potent compound to inhibit DLK-GFP puncta formation”. In addition, the “DLK-GFP puncta (DLK puncta/NLS), dose response” value at DLK-GFP [3] (HEK293T, DLK-GFP and mCherry-NLS, compound added 2 hours post-transfection for 16-18 h) is on record as “decreases DLK-GFP puncta”.
